In assay [1] the target is DNA gyrase (Escherichia coli, UniProt P0AES4+P0AES6). The assay is described as follows: (§1) Inhibitory activity against Escherichia coli DNA gyrase. Format: protein-complex assay.
Assay [2] relates to Staphylococcus aureus. The assay is described as follows: Inhibitory activity against Staphylococcus aureus FDA 209P. Type of assay: functional.
Assay [3] has as its system Enterococcus faecalis. The assay is described as follows: Inhibitory activity against Enterococcus faecalis KU 1777. Type of assay: functional.
Assay [4] has as its system Staphylococcus aureus. The assay is described as follows: Inhibitory activity against Staphylococcus aureus KMP9. Type of assay: functional.
Assay [5] relates to Enterococcus faecalis. The assay is described as follows: Inhibitory activity against Enterococcus faecalis ATCC 29212. Format: functional.
Assay [6] addresses T1, DNA topoisomerase II (Homo sapiens, UniProt P11388+Q02880). The assay is described as follows: Human DNA topoisomerase II relaxation activity was determined. Format: protein assay.
For assay [7], the system named is Nucleic Acid. The assay is described as follows: Escherichia coli DNA topoisomerase IV decatenation activity was determined. Format: nucleic-acid assay.
Assay [8] has as its target DNA gyrase (Escherichia coli, UniProt P0AES6+P0AES4). The assay is described as §1. Format: protein-complex assay.
Assay [9] concerns the target T1, DNA topoisomerase II. The assay is described as follows: Inhibitory activity against human DNA topoisomerase II. Format: protein assay.
In assay [10] the test system is Nucleic Acid. The assay is described as follows: Inhibitory activity against Escherichia coli DNA topoisomerase IV. Type of assay: nucleic-acid assay.
[11] abbreviates: Staphylococcus aureus, read-out: MIC.
The mark [12] stands for this setting: Enterococcus faecalis, read-out: MIC.
The mark [13] stands for this setting: Enterococcus faecalis, ATCC 29212, read-out: MIC.

Molecules are shown by their SMILES. ≈ marks a conversion by molar mass, not a printed value. A value given as a limit tells only on which side of the number the result lay.

The results in this text go back to ChEMBL document CHEMBL1146758, “Design, synthesis and structure-activity relationship studies of novel indazole analogues as DNA gyrase inhibitors with Gram-positive antibacterial activity” (Bioorg Med Chem Lett, 2004).

The IC50 is the concentration that inhibits the measured activity by half. Low values mean greater potency, high ones weaker potency. The MIC is the lowest concentration that inhibits growth of the organism.

For `COC(=O)C1CCCC(Nc2[nH]nc3cccc(OCc4cnc(Cl)c(Cl)c4)c23)C1` (configuration not stated), half-maximal inhibition against DNA gyrase [1] (IC50) required 142 µM. The minimum inhibitory concentration (MIC) in the assay with Staphylococcus aureus [2] (setting [11]), in the assay with Enterococcus faecalis [3] (setting [12]), with Staphylococcus aureus [4] (setting [11]) and in the assay on Enterococcus faecalis [5] (setting [13]) was more than 128 µg/mL throughout.

Regarding `CC(C)(C)c1ccc(COc2cccc3[nH]nc(CN[C@@H]4CN[C@H](CO)C4)c23)cc1`, the IC50 on DNA gyrase [1] is 157 µM. Besides, the minimal inhibitory concentration (MIC) in the assay with Staphylococcus aureus [2] (setting [11]), in the assay with Enterococcus faecalis [3] (setting [12]), with Staphylococcus aureus [4] (setting [11]) and with Enterococcus faecalis [5] (setting [13]) was 64 µg/mL (≈ 157 µM) in each case.

For `COC(=O)C1CCCC(Nc2[nH]nc3cccc(OCc4ccc(C(C)(C)C)cc4)c23)C1` (configuration not stated), at DNA gyrase [1], half-maximal inhibition (IC50) was put at 9.18 µM. In addition, the minimum inhibitory concentration (MIC) turned out to be 4 µg/mL (≈ 9.18 µM) in the assay with Staphylococcus aureus [2] (setting [11]), 4 µg/mL (≈ 9.18 µM) in the assay with Enterococcus faecalis [3] (setting [12]), 4 µg/mL (≈ 9.18 µM) in the assay on Staphylococcus aureus [4] (setting [11]) and 8 µg/mL (≈ 18.4 µM) in the assay on Enterococcus faecalis [5] (setting [13]).

On to `COC(=O)C1CCCC(NCc2cc(/C=C/c3ccc(Cl)c(Cl)c3)[nH]n2)C1` (configuration not stated), for which the IC50 against DNA gyrase [1] is 39.2 µM. Besides, the MIC with Staphylococcus aureus [2] (setting [11]) was found to be 4 µg/mL (≈ 9.8 µM); with Enterococcus faecalis [3] (setting [12]), 16 µg/mL (≈ 39.2 µM); in the assay on Staphylococcus aureus [4] (setting [11]), 8 µg/mL (≈ 19.6 µM); in the assay on Enterococcus faecalis [5] (setting [13]), 16 µg/mL (≈ 39.2 µM).

Compound `COC(=O)C1CCCC(Nc2[nH]nc3cccc(OCc4ccc(Cl)c(Cl)c4)c23)C1` (configuration not stated) had an IC50 against DNA gyrase [1] of 2.23 µM. Also, the MIC with Staphylococcus aureus [2] (setting [11]), with Enterococcus faecalis [3] (setting [12]), in the assay with Staphylococcus aureus [4] (setting [11]) and with Enterococcus faecalis [5] (setting [13]) was 4 µg/mL (≈ 8.92 µM) in each case.

Compound `COC(=O)C1CCCC(NCc2cc(/C=C\c3ccc(Cl)c(Cl)c3)[nH]n2)C1` (configuration not stated) gave a half-maximal inhibitory concentration (IC50) at DNA gyrase [1] of 39.2 µM. Further, the minimum inhibitory concentration (MIC) with Staphylococcus aureus [2] (setting [11]) amounted to 4 µg/mL (≈ 9.8 µM); in the assay on Enterococcus faecalis [3] (setting [12]), 16 µg/mL (≈ 39.2 µM); with Staphylococcus aureus [4] (setting [11]), 8 µg/mL (≈ 19.6 µM); in the assay with Enterococcus faecalis [5] (setting [13]), 16 µg/mL (≈ 39.2 µM).

Consider `COC(=O)C1CCCC(NCc2n[nH]c3cccc(OCc4ccc(Cl)c(Cl)c4)c23)C1` (configuration not stated), for which the half-maximal inhibitory concentration (IC50) on DNA gyrase [1] was 2.16 µM; at DNA topoisomerase II [6], more than 400 µg/mL; in the assay on Nucleic Acid [7], more than 128 µg/mL. The MIC in the assay on Staphylococcus aureus [2] (setting [11]), in the assay with Enterococcus faecalis [3] (setting [12]), in the assay on Staphylococcus aureus [4] (setting [11]) and in the assay with Enterococcus faecalis [5] (setting [13]) was 4 µg/mL (≈ 8.65 µM) in each case.

On DNA gyrase [1], `COC(=O)C1CCCN(Cc2n[nH]c3cccc(OCc4ccc(C(C)(C)C)cc4)c23)C1` (configuration not stated) had a half-inhibitory concentration (IC50) of 36.7 µM. For the same compound, the MIC in the assay with Staphylococcus aureus [2] (setting [11]) is 32 µg/mL (≈ 73.5 µM); in the assay with Enterococcus faecalis [3] (setting [12]), 32 µg/mL (≈ 73.5 µM); in the assay with Staphylococcus aureus [4] (setting [11]), 64 µg/mL (≈ 147 µM); in the assay with Enterococcus faecalis [5] (setting [13]), 64 µg/mL (≈ 147 µM).

On to `COC(=O)C1CCCC(Nc2[nH]nc3cccc(OCc4ccc(Cl)cc4)c23)C1` (configuration not stated), for which, at DNA gyrase [1], the 50% inhibitory concentration (IC50) was 38.7 µM. The MIC in the assay with Staphylococcus aureus [2] (setting [11]) came out at 32 µg/mL (≈ 77.3 µM); in the assay with Enterococcus faecalis [3] (setting [12]), 32 µg/mL (≈ 77.3 µM); with Staphylococcus aureus [4] (setting [11]) it was 32 µg/mL (≈ 77.3 µM); with Enterococcus faecalis [5] (setting [13]) it was 64 µg/mL (≈ 155 µM).

As for `CC(C)(C)c1ccc(COc2cccc3[nH]nc(CN4CCNCC4)c23)cc1`, the concentration for half-maximal inhibition (IC50) against DNA gyrase [1] was 169 µM. The MIC with Staphylococcus aureus [2] (setting [11]) was 16 µg/mL (≈ 42.3 µM); in the assay with Enterococcus faecalis [3] (setting [12]) it was 16 µg/mL (≈ 42.3 µM); in the assay with Staphylococcus aureus [4] (setting [11]), 32 µg/mL (≈ 84.5 µM); with Enterococcus faecalis [5] (setting [13]), 32 µg/mL (≈ 84.5 µM).

On to `CCOC(=O)C1CCCN(Cc2n[nH]c3cccc(OCc4ccc(C(C)(C)C)cc4)c23)C1` (configuration not stated), for which the IC50 on DNA gyrase [1] was 17.8 µM. Moreover, the minimum inhibitory concentration (MIC) in the assay with Staphylococcus aureus [2] (setting [11]) came to 16 µg/mL (≈ 35.6 µM); in the assay on Enterococcus faecalis [3] (setting [12]), 16 µg/mL (≈ 35.6 µM); in the assay with Staphylococcus aureus [4] (setting [11]), 32 µg/mL (≈ 71.2 µM); in the assay with Enterococcus faecalis [5] (setting [13]), 16 µg/mL (≈ 35.6 µM).

Consider `COC(=O)C1CCCC(NCc2cc(/C=C/c3cn(C)c4ccc(Cl)cc34)[nH]n2)C1` (stereo in doubt; 7ba), for which the IC50 at DNA gyrase [8] is 2.34 µM. For the same compound, the values for the minimum inhibitory concentration (MIC) in the assay on Staphylococcus aureus [2], against Staphylococcus aureus [4] and against Enterococcus faecalis [5] were 8 µg/mL (≈ 18.7 µM), 8 µg/mL (≈ 18.7 µM) and 32 µg/mL (≈ 75 µM), respectively.

Turning to `COC(=O)C1CCCC(NCc2cc(/C=C/c3cn(C)c4ccc(Cl)cc34)[nH]n2)C1` (stereo in doubt; 7bb), the IC50 on DNA gyrase [1] is 2.34 µM. The minimum inhibitory concentration (MIC) came out at 16 µg/mL (≈ 37.5 µM) with Staphylococcus aureus [2] (setting [11]), 32 µg/mL (≈ 75 µM) in the assay on Enterococcus faecalis [3] (setting [12]), 16 µg/mL (≈ 37.5 µM) with Staphylococcus aureus [4] (setting [11]) and 64 µg/mL (≈ 150 µM) with Enterococcus faecalis [5] (setting [13]).

As to `COC(=O)C1CCCC(NCc2cc(/C=C\c3cn(C)c4ccc(Cl)cc34)[nH]n2)C1` (stereo in doubt; 8ba), 2.34 µM corresponded to half-maximal inhibition at DNA gyrase [1] (IC50). The minimal inhibitory concentration (MIC) was found to be 4 µg/mL (≈ 9.37 µM) with Staphylococcus aureus [2] (setting [11]), 8 µg/mL (≈ 18.7 µM) against Enterococcus faecalis [3], 8 µg/mL (≈ 18.7 µM) with Staphylococcus aureus [4] (setting [11]) and 8 µg/mL (≈ 18.7 µM) in the assay with Enterococcus faecalis [5].

Consider `COC(=O)C1CCCC(NCc2cc(/C=C\c3cn(C)c4ccc(Cl)cc34)[nH]n2)C1` (stereo in doubt; 8bb), for which the 50% inhibitory concentration (IC50) against DNA gyrase [1] is 1.17 µM. Moreover, the MIC is 8 µg/mL (≈ 18.7 µM) against Staphylococcus aureus [2], 32 µg/mL (≈ 75 µM) in the assay with Enterococcus faecalis [3], 16 µg/mL (≈ 37.5 µM) against Staphylococcus aureus [4] and 64 µg/mL (≈ 150 µM) against Enterococcus faecalis [5].

Turning to `CO[C@@H]1[C@@H](OC(N)=O)[C@@H](O)[C@H](Oc2ccc3c(O)c(NC(=O)c4ccc(O)c(CC=C(C)C)c4)c(=O)oc3c2C)OC1(C)C` [NOVOBIOCIN], the minimal inhibitory concentration (MIC) in the assay on Staphylococcus aureus [2] (setting [11]) came to 0.25 µg/mL (≈ 0.408 µM); in the assay with Enterococcus faecalis [3] (setting [12]), 2 µg/mL (≈ 3.26 µM); in the assay with Staphylococcus aureus [4] (setting [11]), 0.25 µg/mL (≈ 0.408 µM); in the assay with Enterococcus faecalis [5] (setting [13]), 2 µg/mL (≈ 3.26 µM). The results for the IC50 at DNA topoisomerase II [9] and with Nucleic Acid [10] were more than 400 µg/mL and 25 µg/mL (≈ 40.8 µM), respectively.
